Like-named read-outs stand apart in the source and are kept apart here.
What was measured:
Type in all cases: binding
broad panel of kinases [1] = biological target: broad panel of kinases (Homo sapiens, UniProt Q86V86); conditions: PIM3; 1 μM
broad panel of kinases [2] = biological target: broad panel of kinases (Homo sapiens, UniProt Q8TD19); conditions: NEK9; 1 μM
broad panel of kinases [3] = biological target: broad panel of kinases (Homo sapiens, UniProt Q5S007, G2019S); conditions: LRRK2(G2019S); 1 μM
broad panel of kinases [4] = biological target: broad panel of kinases (Homo sapiens, UniProt Q9UKE5); conditions: TNIK; 1 μM
broad panel of kinases [5] = biological target: broad panel of kinases (Homo sapiens, UniProt Q16512); conditions: PKN1; 1 μM
broad panel of kinases [6] = biological target: broad panel of kinases (Homo sapiens, UniProt Q8TD08); conditions: ERK8; 1 μM
broad panel of kinases [7] = biological target: broad panel of kinases (Homo sapiens, UniProt P36888, D835Y); conditions: FLT3(D835Y); 1 μM
broad panel of kinases [8] = biological target: broad panel of kinases (Homo sapiens, UniProt O43318); conditions: TAK1; 1 μM
broad panel of kinases [9] = biological target: broad panel of kinases (Homo sapiens, UniProt P42681); conditions: TXK; 1 μM
broad panel of kinases [10] = biological target: broad panel of kinases (Homo sapiens, UniProt Q8N5S9); conditions: CAMKK1; 1 μM
broad panel of kinases [11] = biological target: broad panel of kinases (Homo sapiens, UniProt P31749); conditions: AKT1; 1 μM
broad panel of kinases [12] = biological target: broad panel of kinases (Homo sapiens, UniProt Q9UPZ9); conditions: ICK; 1 μM
broad panel of kinases [13] = biological target: broad panel of kinases (Homo sapiens, UniProt P00519, F317L); conditions: 1 μM
broad panel of kinases [14] = biological target: broad panel of kinases (Homo sapiens, UniProt Q9UQ88); conditions: CDC2L2; 1 μM
broad panel of kinases [15] = biological target: broad panel of kinases (Homo sapiens, UniProt Q13188); conditions: MST2; 1 μM
broad panel of kinases [16] = biological target: broad panel of kinases (Homo sapiens, UniProt Q7KZI7); conditions: MARK2; 1 μM
broad panel of kinases [17] = biological target: broad panel of kinases (Homo sapiens, UniProt O60331); conditions: PIP5K1C; 1 μM
broad panel of kinases [18] = biological target: broad panel of kinases (Homo sapiens, UniProt Q14289); conditions: PYK2; 1 μM
broad panel of kinases [19] = biological target: broad panel of kinases (Homo sapiens, UniProt Q9H0K1); conditions: SIK2; 1 μM
broad panel of kinases [20] = biological target: broad panel of kinases (Homo sapiens, UniProt Q13464); conditions: ROCK1; 1 μM
broad panel of kinases [21] = biological target: broad panel of kinases (Homo sapiens, UniProt P10721, T670I/V559D); conditions: KIT(V559D, T670I); 1 μM
broad panel of kinases [22] = biological target: broad panel of kinases (Homo sapiens, UniProt P21709); conditions: EPHA1; 1 μM
broad panel of kinases [23] = biological target: broad panel of kinases (Homo sapiens, UniProt Q13873); conditions: BMPR2; 1 μM
broad panel of kinases [24] = biological target: broad panel of kinases (Homo sapiens, UniProt Q5S007); conditions: LRRK2; 1 μM
broad panel of kinases [25] = biological target: broad panel of kinases (Homo sapiens, UniProt P07333); conditions: 1 μM
broad panel of kinases [26] = biological target: broad panel of kinases (Homo sapiens, UniProt Q14680); conditions: MELK; 1 μM
broad panel of kinases [27] = biological target: broad panel of kinases (Homo sapiens, UniProt P08922); conditions: ROS1; 1 μM
broad panel of kinases [28] = biological target: broad panel of kinases (Homo sapiens, UniProt P00519, F317I); conditions: 1 μM
broad panel of kinases [29] = biological target: broad panel of kinases (Homo sapiens, UniProt P07949, V804L); conditions: RET(V804L); 1 μM
broad panel of kinases [30] = biological target: broad panel of kinases (Homo sapiens, UniProt O14733); conditions: MKK7; 1 μM
broad panel of kinases [31] = biological target: broad panel of kinases (Homo sapiens, UniProt P53778); conditions: p38-gamma; 1 μM
broad panel of kinases [32] = biological target: broad panel of kinases (Homo sapiens, UniProt Q8IVH8); conditions: MAP4K3; 1 μM
broad panel of kinases [33] = biological target: broad panel of kinases (Homo sapiens, UniProt P10721); conditions: 1 μM
broad panel of kinases [34] = biological target: broad panel of kinases (Homo sapiens, UniProt P43403); conditions: ZAP70; 1 μM
broad panel of kinases [35] = biological target: broad panel of kinases (Homo sapiens, UniProt P23443); conditions: S6K1; 1 μM
broad panel of kinases [36] = biological target: broad panel of kinases (Homo sapiens, UniProt P00533, T790M); conditions: EGFR(T790M); 1 μM

Chain of broad panel of kinases (Homo sapiens, UniProt P10721) (P10721 26-976 limits assumed): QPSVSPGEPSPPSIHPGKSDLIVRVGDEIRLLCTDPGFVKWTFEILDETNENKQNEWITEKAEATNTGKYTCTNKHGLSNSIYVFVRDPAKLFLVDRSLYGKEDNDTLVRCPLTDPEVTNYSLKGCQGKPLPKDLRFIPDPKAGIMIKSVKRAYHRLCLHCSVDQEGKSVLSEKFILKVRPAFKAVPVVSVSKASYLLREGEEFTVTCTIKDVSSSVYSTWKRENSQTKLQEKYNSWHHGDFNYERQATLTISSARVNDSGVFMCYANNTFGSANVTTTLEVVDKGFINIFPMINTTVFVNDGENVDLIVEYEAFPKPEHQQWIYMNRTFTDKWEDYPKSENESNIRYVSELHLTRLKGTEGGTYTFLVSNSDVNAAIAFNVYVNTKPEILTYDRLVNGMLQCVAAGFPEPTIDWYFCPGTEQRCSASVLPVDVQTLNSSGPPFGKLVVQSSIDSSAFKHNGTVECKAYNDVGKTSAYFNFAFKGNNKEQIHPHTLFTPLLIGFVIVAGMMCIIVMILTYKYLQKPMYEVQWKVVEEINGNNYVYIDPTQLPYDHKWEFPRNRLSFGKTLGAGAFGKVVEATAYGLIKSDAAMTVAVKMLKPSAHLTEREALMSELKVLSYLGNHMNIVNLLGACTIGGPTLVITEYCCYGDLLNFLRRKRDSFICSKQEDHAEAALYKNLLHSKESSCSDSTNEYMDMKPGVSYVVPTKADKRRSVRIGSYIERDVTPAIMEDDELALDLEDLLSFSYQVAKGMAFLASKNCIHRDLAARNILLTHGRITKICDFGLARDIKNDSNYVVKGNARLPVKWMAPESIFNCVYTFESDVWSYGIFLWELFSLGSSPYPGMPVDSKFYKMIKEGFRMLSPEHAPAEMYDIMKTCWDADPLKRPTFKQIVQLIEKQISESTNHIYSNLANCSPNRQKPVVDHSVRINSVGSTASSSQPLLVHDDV
Chain of broad panel of kinases (Homo sapiens, UniProt P07333) (P07333 20-972 limits assumed): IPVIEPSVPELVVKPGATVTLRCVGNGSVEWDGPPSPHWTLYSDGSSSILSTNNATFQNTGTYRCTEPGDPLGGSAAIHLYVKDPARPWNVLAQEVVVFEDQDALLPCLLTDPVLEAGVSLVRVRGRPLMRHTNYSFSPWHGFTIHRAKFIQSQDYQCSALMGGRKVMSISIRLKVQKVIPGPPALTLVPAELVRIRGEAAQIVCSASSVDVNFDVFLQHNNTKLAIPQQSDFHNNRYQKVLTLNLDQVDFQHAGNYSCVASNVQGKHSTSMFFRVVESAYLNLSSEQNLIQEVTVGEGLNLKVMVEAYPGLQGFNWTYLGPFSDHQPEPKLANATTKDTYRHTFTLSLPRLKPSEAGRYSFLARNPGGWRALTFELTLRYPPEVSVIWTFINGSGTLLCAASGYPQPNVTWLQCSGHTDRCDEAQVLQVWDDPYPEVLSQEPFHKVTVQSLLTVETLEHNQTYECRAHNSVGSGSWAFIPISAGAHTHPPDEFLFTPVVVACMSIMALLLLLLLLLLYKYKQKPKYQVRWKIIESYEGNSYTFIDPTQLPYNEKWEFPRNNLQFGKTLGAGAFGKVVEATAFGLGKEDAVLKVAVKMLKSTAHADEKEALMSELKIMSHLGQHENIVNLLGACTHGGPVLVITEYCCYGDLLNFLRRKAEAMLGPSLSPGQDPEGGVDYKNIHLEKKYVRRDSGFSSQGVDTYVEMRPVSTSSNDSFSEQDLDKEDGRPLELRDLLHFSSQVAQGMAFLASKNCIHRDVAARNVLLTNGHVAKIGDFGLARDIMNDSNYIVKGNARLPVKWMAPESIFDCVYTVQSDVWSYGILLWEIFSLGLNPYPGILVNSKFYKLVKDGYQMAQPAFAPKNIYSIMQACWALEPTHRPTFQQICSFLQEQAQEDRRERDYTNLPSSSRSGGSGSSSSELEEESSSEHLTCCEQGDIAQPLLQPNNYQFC
Chain of broad panel of kinases (Homo sapiens, UniProt Q8TD19) (Q8TD19 2-979 limits assumed): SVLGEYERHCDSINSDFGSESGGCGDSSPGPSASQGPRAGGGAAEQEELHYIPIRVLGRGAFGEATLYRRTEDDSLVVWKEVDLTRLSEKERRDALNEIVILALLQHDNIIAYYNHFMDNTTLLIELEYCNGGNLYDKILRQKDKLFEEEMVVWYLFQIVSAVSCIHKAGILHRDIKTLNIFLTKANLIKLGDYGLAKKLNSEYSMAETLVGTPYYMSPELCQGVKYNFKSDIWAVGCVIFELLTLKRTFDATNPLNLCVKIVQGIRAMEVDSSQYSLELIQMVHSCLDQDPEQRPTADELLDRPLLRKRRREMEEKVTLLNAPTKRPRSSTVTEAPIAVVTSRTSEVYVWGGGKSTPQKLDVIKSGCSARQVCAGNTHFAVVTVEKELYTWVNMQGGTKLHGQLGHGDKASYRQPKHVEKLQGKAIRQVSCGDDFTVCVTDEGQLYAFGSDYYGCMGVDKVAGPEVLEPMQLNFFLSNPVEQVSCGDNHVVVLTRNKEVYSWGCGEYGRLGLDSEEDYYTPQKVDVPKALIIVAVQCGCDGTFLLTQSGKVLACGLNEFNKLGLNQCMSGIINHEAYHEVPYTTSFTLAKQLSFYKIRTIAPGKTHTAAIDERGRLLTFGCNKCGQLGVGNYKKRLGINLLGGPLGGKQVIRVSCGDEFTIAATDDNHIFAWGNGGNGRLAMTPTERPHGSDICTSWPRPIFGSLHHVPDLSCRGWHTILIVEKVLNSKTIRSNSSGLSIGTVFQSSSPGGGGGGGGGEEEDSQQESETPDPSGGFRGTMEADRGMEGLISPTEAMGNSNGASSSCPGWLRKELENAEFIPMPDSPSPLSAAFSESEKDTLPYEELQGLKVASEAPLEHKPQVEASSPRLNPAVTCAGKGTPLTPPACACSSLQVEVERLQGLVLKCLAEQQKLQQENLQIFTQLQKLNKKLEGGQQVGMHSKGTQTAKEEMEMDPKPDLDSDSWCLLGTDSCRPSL
Chain of broad panel of kinases (Homo sapiens, UniProt O14733) (O14733 2-419 limits assumed): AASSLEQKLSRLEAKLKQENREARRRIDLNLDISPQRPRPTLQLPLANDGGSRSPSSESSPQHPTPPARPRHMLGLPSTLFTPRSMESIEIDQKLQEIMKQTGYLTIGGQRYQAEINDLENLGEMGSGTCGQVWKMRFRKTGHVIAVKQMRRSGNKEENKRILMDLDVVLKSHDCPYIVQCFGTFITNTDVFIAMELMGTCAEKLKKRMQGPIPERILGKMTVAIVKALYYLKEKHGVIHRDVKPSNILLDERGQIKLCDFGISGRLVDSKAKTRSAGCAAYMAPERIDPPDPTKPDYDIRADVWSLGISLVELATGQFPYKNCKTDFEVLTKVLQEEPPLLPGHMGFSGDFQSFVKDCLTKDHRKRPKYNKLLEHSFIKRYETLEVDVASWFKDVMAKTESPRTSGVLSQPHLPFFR
Chain of broad panel of kinases (Homo sapiens, UniProt P07949, V804L) (P07949 29-1114 V804L limits assumed): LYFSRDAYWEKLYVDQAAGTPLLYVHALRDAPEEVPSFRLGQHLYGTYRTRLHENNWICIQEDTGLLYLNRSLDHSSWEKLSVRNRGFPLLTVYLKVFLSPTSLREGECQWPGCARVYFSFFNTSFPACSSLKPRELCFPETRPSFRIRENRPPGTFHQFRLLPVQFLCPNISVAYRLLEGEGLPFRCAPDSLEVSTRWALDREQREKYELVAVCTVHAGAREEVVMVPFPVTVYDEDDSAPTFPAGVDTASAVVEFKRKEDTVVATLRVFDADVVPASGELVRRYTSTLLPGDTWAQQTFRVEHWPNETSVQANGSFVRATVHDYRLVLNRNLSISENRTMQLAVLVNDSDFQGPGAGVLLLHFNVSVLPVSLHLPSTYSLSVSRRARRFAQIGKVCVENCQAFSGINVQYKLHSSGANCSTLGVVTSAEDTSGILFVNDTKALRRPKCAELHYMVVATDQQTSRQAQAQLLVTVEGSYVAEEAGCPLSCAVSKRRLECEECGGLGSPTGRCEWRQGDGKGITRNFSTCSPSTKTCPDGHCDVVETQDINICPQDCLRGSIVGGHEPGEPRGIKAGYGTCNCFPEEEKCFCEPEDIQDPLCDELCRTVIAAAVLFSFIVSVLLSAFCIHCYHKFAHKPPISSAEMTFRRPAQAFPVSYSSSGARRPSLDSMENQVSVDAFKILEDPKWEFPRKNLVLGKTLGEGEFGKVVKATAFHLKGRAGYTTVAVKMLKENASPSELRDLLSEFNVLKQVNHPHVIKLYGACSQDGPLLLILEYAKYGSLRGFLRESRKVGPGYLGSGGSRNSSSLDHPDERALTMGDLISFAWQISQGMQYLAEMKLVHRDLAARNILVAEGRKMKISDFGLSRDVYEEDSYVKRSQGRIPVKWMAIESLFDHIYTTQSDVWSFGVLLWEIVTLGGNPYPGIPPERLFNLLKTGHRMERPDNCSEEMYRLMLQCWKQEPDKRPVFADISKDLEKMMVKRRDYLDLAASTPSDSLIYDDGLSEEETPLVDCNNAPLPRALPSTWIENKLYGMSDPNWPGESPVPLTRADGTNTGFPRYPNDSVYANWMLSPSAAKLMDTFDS
Chain of broad panel of kinases (Homo sapiens, UniProt P10721, T670I/V559D) (P10721 26-976 V559D/T670I limits assumed): as the sequence (P10721 26-976 limits assumed) above, with V534D, T645I counted along it

| Structure (SMILES) | percent of control binding remaining (lower = stronger binding) (broad panel of kinases [1]) | percent of control binding remaining (lower = stronger binding) (broad panel of kinases [2]) | percent of control binding remaining (lower = stronger binding) (broad panel of kinases [3]) | percent of control binding remaining (lower = stronger binding) (broad panel of kinases [4]) | percent of control binding remaining (lower = stronger binding) (broad panel of kinases [5]) | percent of control binding remaining (lower = stronger binding) (broad panel of kinases [6]) | percent of control binding remaining (lower = stronger binding) (broad panel of kinases [7]) | percent of control binding remaining (lower = stronger binding) (broad panel of kinases [8]) | percent of control binding remaining (lower = stronger binding) (broad panel of kinases [9]) | percent of control binding remaining (lower = stronger binding) (broad panel of kinases [10]) | percent of control binding remaining (lower = stronger binding) (broad panel of kinases [11]) | percent of control binding remaining (lower = stronger binding) (broad panel of kinases [12]) | percent of control binding remaining (lower = stronger binding) (broad panel of kinases [14]) | percent of control binding remaining (lower = stronger binding) (broad panel of kinases [15]) | percent of control binding remaining (lower = stronger binding) (broad panel of kinases [16]) | percent of control binding remaining (lower = stronger binding) (broad panel of kinases [17]) | percent of control binding remaining (lower = stronger binding) (broad panel of kinases [18]) | percent of control binding remaining (lower = stronger binding) (broad panel of kinases [19]) | percent of control binding remaining (lower = stronger binding) (broad panel of kinases [20]) | percent of control binding remaining (lower = stronger binding) (broad panel of kinases [21]) | further results |
| --- | --- | --- | --- | --- | --- | --- | --- | --- | --- | --- | --- | --- | --- | --- | --- | --- | --- | --- | --- | --- | --- |
| C=CC(=O)N1CC[C@H](Nc2nccc(Nc3ncc(C(=O)Nc4c(C)cccc4C)s3)n2)C1 [Example I-3] | 89% | 100% | 99% | 93% | 81% | 99% | 100% | 90% | 0.7% | 97% | 95% | 87% | 93% | 94% | 80% | 65% | 100% | 98% | 89% | 100% | % change compared to control (broad panel of kinases [13]; ABL1(F317L)-nonphosphorylated): 0.5%; % change compared to control (broad panel of kinases [13]; ABL1(F317L)-phosphorylated): 2%; percent of control binding remaining (lower = stronger binding) (broad panel of kinases [22]): 1.6%; percent of control binding remaining (lower = stronger binding) (broad panel of kinases [23]): 100%; percent of control binding remaining (lower = stronger binding) (broad panel of kinases [24]): 100%; percent of control binding remaining (lower = stronger binding) (broad panel of kinases [25]; CSF1R-autoinhibited): 3.2%; percent of control binding remaining (lower = stronger binding) (broad panel of kinases [25]; CSF1R): 3.3%; percent of control binding remaining (lower = stronger binding) (broad panel of kinases [26]): 82%; percent of control binding remaining (lower = stronger binding) (broad panel of kinases [27]): 90%; % change compared to control (broad panel of kinases [28]; ABL1(F317I)-nonphosphorylated): 1.2%; % change compared to control (broad panel of kinases [28]; ABL1(F317I)-phosphorylated): 5.2%; percent of control binding remaining (lower = stronger binding) (broad panel of kinases [29]): 100%; percent of control binding remaining (lower = stronger binding) (broad panel of kinases [30]): 85%; percent of control binding remaining (lower = stronger binding) (broad panel of kinases [31]): 100%; percent of control binding remaining (lower = stronger binding) (broad panel of kinases [32]): 100%; percent of control binding remaining (lower = stronger binding) (broad panel of kinases [33]; KIT-autoinhibited): 2.6%; percent of control binding remaining (lower = stronger binding) (broad panel of kinases [33]; KIT): 0%; percent of control binding remaining (lower = stronger binding) (broad panel of kinases [34]): 100%; percent of control binding remaining (lower = stronger binding) (broad panel of kinases [35]): 97%; percent of control binding remaining (lower = stronger binding) (broad panel of kinases [36]): 56% |
| C=CC(=O)N1CC[C@H](Nc2nc(CN3CCOCC3)cc(Nc3ncc(C(=O)Nc4c(C)cccc4C)s3)n2)C1 [Example I-2] | 97% | 100% | 100% | 97% | 100% | 97% | 97% | 95% | 0.6% | 100% | 95% | 86% | 92% | 69% | 100% | 99% | 100% | 92% | 88% | 100% | percent of control binding remaining (lower = stronger binding) (broad panel of kinases [13]; ABL1(F317L)-nonphosphorylated): 0%; percent of control binding remaining (lower = stronger binding) (broad panel of kinases [13]; ABL1(F317L)-phosphorylated): 0.5%; percent of control binding remaining (lower = stronger binding) (broad panel of kinases [22]): 0.5%; percent of control binding remaining (lower = stronger binding) (broad panel of kinases [23]): 100%; percent of control binding remaining (lower = stronger binding) (broad panel of kinases [24]): 94%; percent of control binding remaining (lower = stronger binding) (broad panel of kinases [25]; CSF1R-autoinhibited): 1.4%; percent of control binding remaining (lower = stronger binding) (broad panel of kinases [25]; CSF1R): 2.6%; percent of control binding remaining (lower = stronger binding) (broad panel of kinases [26]): 84%; percent of control binding remaining (lower = stronger binding) (broad panel of kinases [27]): 97%; percent of control binding remaining (lower = stronger binding) (broad panel of kinases [28]; ABL1(F317I)-nonphosphorylated): 0.15%; percent of control binding remaining (lower = stronger binding) (broad panel of kinases [28]; ABL1(F317I)-phosphorylated): 5.4%; percent of control binding remaining (lower = stronger binding) (broad panel of kinases [29]): 98%; percent of control binding remaining (lower = stronger binding) (broad panel of kinases [30]): 88%; percent of control binding remaining (lower = stronger binding) (broad panel of kinases [31]): 100%; percent of control binding remaining (lower = stronger binding) (broad panel of kinases [32]): 100%; percent of control binding remaining (lower = stronger binding) (broad panel of kinases [33]; KIT-autoinhibited): 1.8%; percent of control binding remaining (lower = stronger binding) (broad panel of kinases [33]; KIT): 0%; percent of control binding remaining (lower = stronger binding) (broad panel of kinases [34]): 99%; percent of control binding remaining (lower = stronger binding) (broad panel of kinases [35]): 100%; percent of control binding remaining (lower = stronger binding) (broad panel of kinases [36]): 48% |

— patent publication US10844077B2, “Thiazolyl-containing compounds for treating proliferative diseases” (Dana-Farber Cancer Institute, Inc., priority 2014, dated 2020)
